Where “and” joins values, the source holds several entries; their conditions need not be identical. Identical values can stand only once.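 Test compounds were applied to cells in 96-well plates for 48 hours at 5 doses. The concentration for 50% growth inhibition is given as GI50. The concentration for full growth arrest is given as TGI.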

Experimental findings from PubChem BioAssay (NCI) are described below.

What all share (assay): NCI tumour cell line growth inhibition, 48 h
The test system of test [1] is SN12K1 renal.
The test system of test [2] is MDA-N.
Test [3] has as its system LXFL 529 NSCLC.
Test [4] concerns SNB-78 CNS.
Test [5] deals with DLD-1 colon.
In test [6] the test system is DMS 273 small cell lung.
Test [7] has as its system KM20L2 colon.
Test [8] concerns MCF7 breast.
The test system of test [9] is P388/ADR leukemia.
Test [10] has as its system PC-3 prostate.
Test [11] relates to RXF-631 renal.
Test [12] concerns P388 leukemia.

For `CO[C@H]1C[C@](C)(O)Cc2cc3c(c(O)c21)C(=O)c1c(O)cc2c(c1C3=O)O[C@@H]1O[C@@]2(C)[C@H](O)[C@@H](N(C)C)[C@@H]1O`, the TGI is 2.15 µM in test [1]; 10.6 µM in [2]; 7.33 µM in test [3]; 9.66 µM and 21.8 µM in test [4]; 4.08 µM and 22.3 µM in [5]; 2.79 µM and 3.32 µM in test [6]. The TGI is 5.01 µM and 17.2 µM in test [7]; 8.86 µM in [8]; 16.1 µM in test [9]; 15.9 µM in test [10]; 2.71 µM in [11]; 3.3 µM in test [12]. For the same compound, the GI50 in test [4] was 5.05 µM; in test [5], 1.67 µM; in test [6], 0.188 µM; in test [7], 1.74 µM.
